This note sets out measurements from paper PMC11708041, “Structural basis of a microbial trimethylamine transporter” (mBio, 2024).

Usually Kd stands for the equilibrium constant for the complex coming apart. In general, stoichiometry N refers to the number of molecules, sites or subunits per partner or assembly.

Data set [1] concerns the target T1, TmaT (Myroides profundi, UniProt A0A0B5RUB0).
T1 construct: full-length, 529 residues, C-terminal 8xHis tag (pET-22b), expressed in E. coli C43(DE3), DDM-solubilised; homotrimer
T1 sequence (A0A0B5RUB0 1-529): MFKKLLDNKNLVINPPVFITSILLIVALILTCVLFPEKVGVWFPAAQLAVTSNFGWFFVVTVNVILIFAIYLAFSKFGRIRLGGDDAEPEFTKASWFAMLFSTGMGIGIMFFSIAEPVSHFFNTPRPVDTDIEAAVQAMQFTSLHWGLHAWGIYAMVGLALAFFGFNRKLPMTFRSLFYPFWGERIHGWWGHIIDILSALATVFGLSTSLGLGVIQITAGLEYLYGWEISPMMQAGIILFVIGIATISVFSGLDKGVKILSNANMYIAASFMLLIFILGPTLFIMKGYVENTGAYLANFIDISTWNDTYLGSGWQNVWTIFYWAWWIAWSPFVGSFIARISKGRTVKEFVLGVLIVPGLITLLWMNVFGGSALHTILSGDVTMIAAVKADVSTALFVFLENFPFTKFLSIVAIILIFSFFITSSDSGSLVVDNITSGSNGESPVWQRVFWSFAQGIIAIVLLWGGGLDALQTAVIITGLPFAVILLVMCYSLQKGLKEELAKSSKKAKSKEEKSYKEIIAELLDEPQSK
In words: microscale thermophoresis. It is filed as binding. The text has this:
microscale thermophoresis on TmaT

Data set [2] concerns the molecule itself. In words: cryo-EM structure; single-particle cryo-EM of purified TmaT (about 8 mg/mL, in DDM); apo TmaT, and with 2 mM or 5 mM TMA; homotrimer.

In turn, `CN(C)C` [TMA] yielded a dissociation constant Kd in data set [1] of 49 ± 9.4 µM.

B1: TmaT, TMA transporter of Myroides profundi D25 (natural protein, UniProt A0A0B5RUB0 1-529, looked up)
chain: MFKKLLDNKNLVINPPVFITSILLIVALILTCVLFPEKVGVWFPAAQLAVTSNFGWFFVVTVNVILIFAIYLAFSKFGRIRLGGDDAEPEFTKASWFAMLFSTGMGIGIMFFSIAEPVSHFFNTPRPVDTDIEAAVQAMQFTSLHWGLHAWGIYAMVGLALAFFGFNRKLPMTFRSLFYPFWGERIHGWWGHIIDILSALATVFGLSTSLGLGVIQITAGLEYLYGWEISPMMQAGIILFVIGIATISVFSGLDKGVKILSNANMYIAASFMLLIFILGPTLFIMKGYVENTGAYLANFIDISTWNDTYLGSGWQNVWTIFYWAWWIAWSPFVGSFIARISKGRTVKEFVLGVLIVPGLITLLWMNVFGGSALHTILSGDVTMIAAVKADVSTALFVFLENFPFTKFLSIVAIILIFSFFITSSDSGSLVVDNITSGSNGESPVWQRVFWSFAQGIIAIVLLWGGGLDALQTAVIITGLPFAVILLVMCYSLQKGLKEELAKSSKKAKSKEEKSYKEIIAELLDEPQSK
notes: TmaT, trimethylamine transporter of the betaine-choline-carnitine transporter (BCCT) family, Myroides profundi D25; full-length tmaT, 1,590 nucleotides encoding a 529-amino-acid polypeptide; no removal of the tag is described; Homotrimer in the cryo-EM structures; also called recombinant TmaT; WT TmaT
Consider B1, for which the “stoichiometry N” value in data set [2] is 3.
